Results on twelve compounds are retold here after ChEMBL document CHEMBL1201862, “PubChem BioAssay data set” (2004).

Test systems include NCI-H226; BT-549; NCI/ADR-RES; UO-31; NCI-H23; MDA-MB-435; HCC 2998; RXF 393; MCF7; UACC-257; MDA-MB-231; SK-OV-3; KM12; SNB-75; A549; SK-MEL-2; Malme-3M; NCI-H522; SR; MOLT-4.
Experiment in all cases: NCI anticancer screen, dose series, 48 h

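All cell lines were grown in 96-well plates and treated with compound for 48 hours. Abbreviation: GI50, concentration required for 50% inhibition of growth.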 The source made the active and inactive calls. Cut-off read from the data, not from the text of the source: active = GI50 up to about 1.1 µM and inactive = higher.

With `N#C/C(=C/NC(N)=S)C(N)=O`, the GI50 in the assay with NCI-H226, in the assay on BT-549, in the assay on NCI/ADR-RES, in the assay on UO-31, in the assay with NCI-H23 and in the assay on MDA-MB-435 was > 100 µM (inactive) in each case. The GI50 in the assay on HCC 2998, in the assay on RXF 393, with MCF7, with UACC-257, in the assay on MDA-MB-231 and in the assay with SK-OV-3 was > 100 µM (inactive) throughout. The GI50 in the assay with KM12, in the assay on SNB-75, with A549 and with SK-MEL-2 was > 100 µM (inactive) in each case.
Take `CSC1=C(C#N)C(=O)N(c2ccc(Cl)cc2)C(=O)C1C#N` (stereo not drawn): the GI50 in the assay on Malme-3M is > 100 µM (inactive); in the assay on NCI-H522, > 100 µM (inactive); in the assay with NCI-H226 it was > 100 µM (inactive); in the assay on SR, 15.4 µM (inactive); in the assay with BT-549, > 100 µM (inactive); in the assay on MOLT-4, 97.5 µM (inactive). The GI50 in the assay with UO-31, with NCI-H23, in the assay on MDA-MB-435, in the assay with HCC 2998, in the assay with RXF 393 and in the assay on MCF7 was > 100 µM (inactive) throughout. For the same compound, the GI50 in the assay on UACC-257, in the assay on MDA-MB-231, with SK-OV-3, with A549 and in the assay on SK-MEL-2 was > 100 µM (inactive) each time.
Turning to `CC(=O)Oc1cc(S(=O)(=O)Nc2nc(N)n[nH]2)c(S)cc1Cl`, the GI50 in the assay on Malme-3M, in the assay with NCI-H522, in the assay with SR, in the assay with BT-549, with MOLT-4 and with NCI/ADR-RES was > 100 µM (inactive) throughout. Further, the GI50 in the assay on UO-31, in the assay on NCI-H23, in the assay with MDA-MB-435, in the assay on HCC 2998, in the assay on MCF7 and in the assay on UACC-257 was > 100 µM (inactive) throughout. The GI50 in the assay on MDA-MB-231, in the assay on KM12, with A549 and in the assay with SK-MEL-2 was > 100 µM (inactive) in each case.
As to `O=c1[nH]c(-n2[nH]c3c(c2=O)CCCC3)nc(O)c1-c1ccccc1`, the GI50 in the assay with Malme-3M, with NCI-H522, in the assay on NCI-H226, in the assay on SR, in the assay with BT-549 and in the assay with MOLT-4 was > 100 µM (inactive) in each case. Further, the GI50 in the assay with NCI/ADR-RES, with UO-31, in the assay on NCI-H23, with MDA-MB-435, with RXF 393 and in the assay on UACC-257 was > 100 µM (inactive) throughout. Also, the GI50 in the assay with MDA-MB-231, in the assay on SK-OV-3, with KM12 and in the assay with SK-MEL-2 was > 100 µM (inactive) in each case.
Consider `Cc1ccc(N/C(=C(/C(Cl)=C(Cl)Cl)[N+](=O)[O-])n2nnc3ccccc32)cc1`, for which the GI50 in the assay with Malme-3M is 16.1 µM (inactive); in the assay on NCI-H226, 18.5 µM (inactive); in the assay on BT-549, 17.7 µM (inactive); in the assay on MOLT-4 it was 9.64 µM (inactive); in the assay on NCI/ADR-RES it was 27.2 µM (inactive); in the assay on UO-31 it was 16.6 µM (inactive). The GI50 in the assay with NCI-H23 was 21.5 µM (inactive); in the assay on MDA-MB-435, 20.1 µM (inactive); in the assay on HCC 2998, 18.7 µM (inactive); in the assay with MCF7, 29.1 µM (inactive); with UACC-257, 26 µM (inactive); with SK-OV-3, 17.1 µM (inactive). For the same compound, the GI50 was 21.2 µM (inactive) with KM12, 18.8 µM (inactive) in the assay with SNB-75, 19.5 µM (inactive) in the assay on A549 and 17.7 µM (inactive) in the assay with SK-MEL-2.
Consider `CCOC(=O)/C(C#N)=C/c1coc2cc(C)cc(C)c2c1=O`, for which the GI50 in the assay with Malme-3M was 45.3 µM (inactive); in the assay with NCI-H522, > 100 µM (inactive); with NCI-H226, > 100 µM (inactive); in the assay on SR, > 100 µM (inactive); with BT-549, > 100 µM (inactive); in the assay with MOLT-4, > 100 µM (inactive). Besides, the GI50 in the assay on NCI/ADR-RES is > 100 µM (inactive); in the assay with UO-31 it was 59 µM (inactive); in the assay on NCI-H23, > 100 µM (inactive); in the assay on MDA-MB-435, > 100 µM (inactive); in the assay on HCC 2998, > 100 µM (inactive); with RXF 393, > 100 µM (inactive). For the same compound, the GI50 with UACC-257, in the assay with MDA-MB-231, in the assay with SK-OV-3, in the assay on KM12, in the assay on SNB-75 and in the assay on A549 was > 100 µM (inactive) throughout.
`CC1(C)C2CCC(N)(C2)C1O` (stereo not drawn): the GI50 in the assay on NCI-H226, in the assay with SR, with BT-549, with MOLT-4, with NCI/ADR-RES and in the assay with UO-31 was > 100 µM (inactive) throughout. Besides, the GI50 in the assay with NCI-H23, with MDA-MB-435, with HCC 2998, in the assay on RXF 393, in the assay with MCF7 and in the assay with UACC-257 was > 100 µM (inactive) each time. Further, the GI50 in the assay with SK-OV-3, with KM12, in the assay on SNB-75, with A549 and in the assay with SK-MEL-2 was > 100 µM (inactive) each time.
Regarding `O=c1[nH]c(=O)n(C2CC(O)C(CO)O2)cc1C1=NC1` (stereo not drawn), the GI50 in the assay with NCI-H226, in the assay on BT-549, with MOLT-4, with NCI/ADR-RES, with UO-31 and with NCI-H23 was > 100 µM (inactive) throughout. Moreover, the GI50 with MDA-MB-435, in the assay with HCC 2998, in the assay on RXF 393, with MCF7, in the assay on UACC-257 and in the assay on MDA-MB-231 was > 100 µM (inactive) throughout. For the same compound, the GI50 in the assay with SK-OV-3 was > 100 µM (inactive); with KM12, > 100 µM (inactive); with SNB-75, 81.3 µM (inactive); with A549 it was > 100 µM (inactive); in the assay with SK-MEL-2, > 100 µM (inactive).
Turning to `O=c1cc(N2CCNCC2)nc2ccccn12`, the GI50 in the assay on Malme-3M, with NCI-H522, in the assay on NCI-H226, in the assay with BT-549, with MOLT-4 and in the assay on NCI/ADR-RES was > 100 µM (inactive) in each case. Further, the GI50 in the assay with UO-31, with NCI-H23, in the assay on MDA-MB-435, in the assay with HCC 2998, with RXF 393 and in the assay on MCF7 was > 100 µM (inactive) throughout. For the same compound, the GI50 in the assay with UACC-257, with MDA-MB-231, in the assay on SK-OV-3, in the assay on KM12, with SNB-75 and in the assay with A549 was > 100 µM (inactive) each time. Besides, in the assay on SK-MEL-2, the GI50 is > 100 µM (inactive).
`Cc1ccc2c(c1)C(=O)N1CCC[C@H]1C=N2`: the GI50 with Malme-3M is 18.7 µM (inactive); with NCI-H522, 5.13 µM (inactive); with BT-549, 17.8 µM (inactive); in the assay with MOLT-4, 18.8 µM (inactive); with NCI/ADR-RES, 21.1 µM (inactive); in the assay with UO-31, 5.37 µM (inactive). The GI50 in the assay on NCI-H23 is 16.5 µM (inactive); in the assay with MDA-MB-435, 16.7 µM (inactive); in the assay with HCC 2998, 19.6 µM (inactive); in the assay with RXF 393, 4.21 µM (inactive); in the assay with MCF7, 11.9 µM (inactive); in the assay with UACC-257, 21.9 µM (inactive). Also, the GI50 in the assay with MDA-MB-231 is 19.2 µM (inactive); in the assay with SK-OV-3, 42 µM (inactive); in the assay with KM12, 15.5 µM (inactive); in the assay on A549, 30.7 µM (inactive); in the assay on SK-MEL-2, 17.5 µM (inactive).
Regarding `Nc1ccc(Cc2c(N)[nH]c(=O)[nH]c2=O)cc1`, the GI50 in the assay on Malme-3M is > 100 µM (inactive); with NCI-H522 it was > 100 µM (inactive); in the assay with NCI-H226 it was 86.1 µM (inactive); in the assay with BT-549, > 100 µM (inactive); with MOLT-4, 1.61 µM (inactive); in the assay with NCI/ADR-RES, > 100 µM (inactive). Further, the GI50 with UO-31, in the assay with NCI-H23, in the assay with MDA-MB-435, in the assay on HCC 2998, in the assay on MCF7 and in the assay with UACC-257 was > 100 µM (inactive) each time. The GI50 in the assay with MDA-MB-231, in the assay on SK-OV-3, in the assay on A549 and in the assay on SK-MEL-2 was > 100 µM (inactive) each time.
Take `Cc1cnoc1NS(=O)(=O)c1ccc(Nc2nnc(/C=C/c3c(O)ccc4ccccc34)c(=O)n2N)cc1`: the GI50 is 24 µM (inactive) in the assay with Malme-3M; 21.8 µM (inactive) with SR; 18.7 µM (inactive) in the assay with BT-549; 0.658 µM (active) in the assay with MOLT-4; 11.5 µM (inactive) in the assay on NCI/ADR-RES; 28.7 µM (inactive) in the assay on UO-31. The GI50 in the assay on NCI-H23 is 7.73 µM (inactive); in the assay with MDA-MB-435, 26.7 µM (inactive); with RXF 393, 24 µM (inactive); with MCF7, 18.2 µM (inactive); in the assay with SK-OV-3 it was 56.1 µM (inactive); in the assay on SNB-75 it was 20.8 µM (inactive). In the assay on A549, the GI50 is 35.1 µM (inactive).
